Activity calls are given as the source filed them. The calls are words filed in the database; no cut-off is given here.
How the values were obtained:
[1] = target: Amyloid-beta precursor protein (Homo sapiens) (UniProt P05067); assay: Binding affinity to ordered beta sheet of amyloid beta (1 to 42) (unknown origin) by circular dichroism spectroscopic analysis
Albumin [2] = target: T1, Albumin (Bos taurus, UniProt P02769); assay: Binding affinity to bovine serum albumin at 2 uM by circular dichroism spectroscopic analysis relative to control relative to control; conditions: cattle
Albumin [3] = target: T1, Albumin; assay: Binding affinity to bovine serum albumin at 2 uM by circular dichroism spectroscopic analysis relative to control; conditions: cattle
Albumin [4] = target: T1, Albumin; assay: Binding affinity to bovine serum albumin at 2 uM by circular dichroism spectroscopic analysis; conditions: cattle, TDE = time-dependent effect
Albumin [5] = target: T1, Albumin; assay: Binding affinity to beta-sheet rich bovine serum albumin at 2 uM by circular dichroism spectroscopic analysis; conditions: cattle, TDE = time-dependent effect
[6] = target: Amyloid-beta precursor protein (Homo sapiens) (UniProt P05067); assay: Binding affinity to unordered beta sheet of amyloid beta (1 to 42) (unknown origin) assessed as fluorescence enhancement at 0.5 uM by fluorescence spectra analysis relative to control
[7] = target: Amyloid-beta precursor protein (Homo sapiens) (UniProt P05067); assay: Binding affinity to ordered beta sheet of amyloid beta (1 to 42) (unknown origin) assessed as fluorescence enhancement at 0.5 uM by fluorescence spectra analysis relative to control
[8] = target: Amyloid-beta precursor protein (Homo sapiens) (UniProt P05067); assay: Binding affinity to unordered beta sheet of amyloid beta (1 to 42) (unknown origin) by circular dichroism spectroscopic analysis

Amyloid-beta precursor protein (Homo sapiens), sequence (P05067 whole entry): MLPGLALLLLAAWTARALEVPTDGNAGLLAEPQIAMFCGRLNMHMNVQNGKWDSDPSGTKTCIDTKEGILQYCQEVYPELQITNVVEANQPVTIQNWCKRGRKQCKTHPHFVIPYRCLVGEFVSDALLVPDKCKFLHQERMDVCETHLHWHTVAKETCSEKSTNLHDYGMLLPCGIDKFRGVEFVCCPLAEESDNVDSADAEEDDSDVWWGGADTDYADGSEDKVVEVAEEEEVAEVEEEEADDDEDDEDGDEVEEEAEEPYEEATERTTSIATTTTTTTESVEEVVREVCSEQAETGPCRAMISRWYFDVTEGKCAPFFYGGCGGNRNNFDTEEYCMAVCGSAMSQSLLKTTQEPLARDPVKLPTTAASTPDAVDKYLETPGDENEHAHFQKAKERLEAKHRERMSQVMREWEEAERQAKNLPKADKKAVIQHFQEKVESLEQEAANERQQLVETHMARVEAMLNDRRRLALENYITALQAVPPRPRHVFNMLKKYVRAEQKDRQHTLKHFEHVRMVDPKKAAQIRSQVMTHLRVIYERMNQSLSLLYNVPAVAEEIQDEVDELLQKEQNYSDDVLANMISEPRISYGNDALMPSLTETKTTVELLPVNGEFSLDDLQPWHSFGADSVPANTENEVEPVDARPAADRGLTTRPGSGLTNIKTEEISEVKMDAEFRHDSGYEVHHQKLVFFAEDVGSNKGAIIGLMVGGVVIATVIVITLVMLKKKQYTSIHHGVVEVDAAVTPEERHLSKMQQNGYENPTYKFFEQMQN
T1 sequence (P02769 whole entry): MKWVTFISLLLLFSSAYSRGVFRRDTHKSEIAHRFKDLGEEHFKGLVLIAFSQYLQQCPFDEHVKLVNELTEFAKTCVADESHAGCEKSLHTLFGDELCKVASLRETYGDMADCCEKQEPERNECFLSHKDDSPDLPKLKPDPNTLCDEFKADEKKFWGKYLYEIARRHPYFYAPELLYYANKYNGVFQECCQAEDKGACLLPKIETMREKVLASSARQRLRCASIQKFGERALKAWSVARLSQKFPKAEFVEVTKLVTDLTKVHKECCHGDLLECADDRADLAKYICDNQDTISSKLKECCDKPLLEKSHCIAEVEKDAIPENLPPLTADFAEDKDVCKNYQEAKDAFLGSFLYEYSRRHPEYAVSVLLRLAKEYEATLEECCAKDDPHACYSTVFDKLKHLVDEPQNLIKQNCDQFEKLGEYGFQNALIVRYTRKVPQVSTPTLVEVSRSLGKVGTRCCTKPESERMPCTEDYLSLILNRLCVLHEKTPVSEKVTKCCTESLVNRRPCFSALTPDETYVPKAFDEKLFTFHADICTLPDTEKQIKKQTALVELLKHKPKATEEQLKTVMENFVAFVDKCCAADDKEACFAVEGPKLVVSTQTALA

Activity [1]: Active | fold change (FC) (Albumin [2]): 340 | fold change (FC) (Albumin [3]): 57 | Activity (Albumin [4]): tde | Activity (Albumin [5]): tde | fold change (FC) [6]: 6 | fold change (FC) [7]: 16 | Activity [8]: Active
SMILES: F[B-]1(F)n2c(-c3ccccc3)cc(-c3ccccc3)c2N=C2C(c3ccccc3)=CC(c3ccccc3)=[N+]21
